Test results taken from paper PMC3466204 (PLoS ONE, 2012).
Values joined by “and” are separate entries in the source; they are usually repeats but may differ in a detail not shown here. Equal values may be shown once. Ends that are not written are not given here.

Experiments:
C. sakazakii DPC 6440 [1] = assay: Kill curve analysis; type: cell-based, Cronobacter sakazakii; conditions: 33 mg/L purified peptide, 2×10^5 cfu ml^−1, 37°C for 1 hour
Method: (§1) Using purified peptide in each case, 10 mM sodium phosphate buffer washed C. sakazakii, E. coli and Salmonella strains were diluted to a final concentration of 2×10^5 cfu ml^−1 and were exposed to nisin A, S29G and S29A at a concentration of 33 mg/L. Following incubation at 37°C for 1 hour, bacterial growth was monitored through plate counts.

E. durans 5133 = assay: Broth MIC, Gram positive; type: cell-based, Enterococcus durans; conditions: broth microtitre, BSA pre-treated plates, 10^5 cfu ml^−1, 2-fold dilutions from 2.5 µM, 16 h 37°C, purified peptide, mean of triplicate assays
Method: (§2) Minimum inhibitory concentration determinations for Gram positive organisms were carried out in triplicate in microtitre plates (Sarstedt). 96 well microtitre plates were pre-treated with bovine serum albumin (BSA) prior to addition of the peptides. Briefly, to each well of the microtitre plate 200 µL of phosphate buffered saline (PBS) containing 1% (w/v) bovine serum albumin (PBS/BSA) was added and incubated at 37°C for 30 min. The wells were washed with 200 µL PBS and allowed to dry. Target strains were grown overnight in the appropriate conditions and medium, subcultured into fresh broth and allowed to grow to an OD600 of ∼0.5, diluted to a final concentration of 10^5 cfu ml^−1 in a volume of 0.2 ml. Wild type nisin and nisin mutant peptides were adjusted to a 10 µM (S. mitis, B. cereus), 7.5 µM (L. monocytogenes), 5 µM (hVISA) 2.5 µM (MRSA, E. durans), or 500 nM (L. lactis strains) starting concentration and 2-fold serial dilutions of each peptide were added to the target strain.

S. mitis UCC5000 = assay: Broth MIC, Gram positive; type: cell-based, Streptococcus mitis; conditions: broth microtitre, BSA pre-treated plates, 10^5 cfu ml^−1, 2-fold dilutions from 10 µM, 16 h 37°C, purified peptide, mean of triplicate assays
Method: as §2

C. sakazakii DPC 6440 [2] = assay: Agarose gel diffusion assay, purified peptide; type: cell-based, Cronobacter sakazakii; conditions: purified peptide 60 µM; for Zone of inhibition, agarose gel diffusion: C. sakazakii DPC 6440, mean of triplicate assays
Method: (§3) Agarose-based deferred antagonism assays were carried out as follows: GM17/LB (0.03%) underlay was prepared with 10 mM sodium phosphate buffer (SPB) at pH 7.4 to which was added agarose (1% w/v agarose), autoclaved and cooled to 50°C. Bacteria grown to mid-logarithmic phase were harvested by centrifugation and washed with 10 mM SPB at pH 7.4. Bacteria were then added to 15 mls cooled underlay medium to reach a concentration of 2×10^7 colony-forming units (CFU)/mL. The inoculated medium was rapidly transferred into sterile Petri plates, allowed to solidify and dried. Wells (4.6 mm in diameter) were then made in the seeded plates. 10 µl volumes of cell-free supernatant from overnight nisin derivative producing cultures or resuspended purified peptides were then added to the wells and the plates incubated at 30°C (L. lactis) or 37°C (Gram positive strains) or RT (Gram negative strains) for 3 hours. Polymyxin B (Sigma Aldrich) was used at a concentration of 20 µg/ml. The plates were then overlaid with 15 mls of autoclaved double strength GM17 (L. lactis) or LB (Gram negatives) agarose (1% w/v agarose) overlay medium precooled to 50°C. The plates were then incubated overnight at the relevant temperature.

[3] = system: Salmonella enterica serovar Typhimurium UK1; assay: Agarose gel diffusion assay, purified peptide; type: cell-based; conditions: purified peptide 60 µM; for Zone of inhibition, agarose gel diffusion: Salmonella Typhimurium UK1, mean of triplicate assays
Method: as §3

E. coli 0157-H7 [4] = assay: Agarose gel diffusion assay, purified peptide; type: cell-based; conditions: purified peptide 60 µM; for Zone of inhibition, agarose gel diffusion: E. coli 0157-H7, mean of triplicate assays
Method: as §3

[5] = system: Salmonella enterica serovar Typhimurium UK1; assay: Broth MIC, Gram negative; type: cell-based; conditions: cells washed in 10 mM SPB pH 7.4, 2×10^5 CFU/mL, 2 h RT with peptide, then double strength LB, RT overnight, mean of triplicate assays
Method: (§4) Minimum inhibitory concentration determinations for Gram negative strains were carried out in triplicate in 96 well microtitre plates. Briefly, bacteria (E. coli, C. sakazakii and Salmonella) grown to mid-logarithmic phase were harvested by centrifugation, washed with 10 mM SPB at pH 7.4, and diluted to 2×10^5 colony-forming units (CFU)/mL in SPB. Nisin and nisin derivative peptides were resuspended in sterile HPLC water and 50 µL aliquots were added to wells containing 50 µL of 2×10^5 CFU of bacteria. Plates were incubated at RT for two hours with agitation. Double strength Luria–Bertani (LB) broth (100 µL) was added and the plates were incubated at RT overnight, the MIC was taken as the lowest concentration at which growth was inhibited.

E. coli 0157-H7 [6] = assay: Broth MIC, Gram negative; type: cell-based; conditions: cells washed in 10 mM SPB pH 7.4, 2×10^5 CFU/mL, 2 h RT with peptide, then double strength LB, RT overnight, mean of triplicate assays
Method: as §4

B. cereus DPC 6088 = assay: Broth MIC, Gram positive; type: cell-based, Bacillus cereus; conditions: broth microtitre, BSA pre-treated plates, 10^5 cfu ml^−1, 2-fold dilutions from 10 µM, 16 h 37°C, purified peptide, mean of triplicate assays
Method: as §2

B. cereus DPC 6089 = assay: Broth MIC, Gram positive; type: cell-based, Bacillus cereus; conditions: broth microtitre, BSA pre-treated plates, 10^5 cfu ml^−1, 2-fold dilutions from 10 µM, 16 h 37°C, purified peptide, mean of triplicate assays
Method: as §2

Lactococcus lactis HP = assay: Agarose-based assay of cell-free supernatants of S29X producing strains; conditions: for Zone Diameter (mm): agarose (1%) GM17 assay, 10 µl cell-free supernatant of overnight producing culture in 4.6 mm wells, L. lactis HP, 30°C; for % difference (zone relative to wild type): agarose assay of supernatants against L. lactis HP, wild type serine = 100
Method: as §3

L. lactis HP = assay: Broth MIC, Gram positive; type: cell-based; conditions: broth microtitre, BSA pre-treated plates, 10^5 cfu ml^−1, 2-fold dilutions from 500 nM, 16 h, purified peptide, mean of triplicate assays
Method: as §2

[7] = system: hVISA 32679 (heterogenous Vancomycin-intermediate S. aureus); assay: Broth MIC, Gram positive; type: cell-based; conditions: broth microtitre, BSA pre-treated plates, 10^5 cfu ml^−1, 2-fold dilutions from 5 µM, 16 h 37°C, purified peptide, mean of triplicate assays
Method: as §2

S. aureus RF122 = assay: Broth MIC, Gram positive; type: cell-based; conditions: broth microtitre, BSA pre-treated plates, 10^5 cfu ml^−1, 2-fold dilutions, 16 h 37°C, purified peptide, mean of triplicate assays
Method: as §2

L. lactis MG1363 [8] = assay: Broth MIC, Gram positive; type: cell-based; conditions: broth microtitre, BSA pre-treated plates, 10^5 cfu ml^−1, 2-fold dilutions from 500 nM, 16 h, purified peptide, mean of triplicate assays
Method: as §2

[9] = system: ST 528 (Methicillin resistant S. aureus); assay: Broth MIC, Gram positive; type: cell-based; conditions: broth microtitre, BSA pre-treated plates, 10^5 cfu ml^−1, 2-fold dilutions from 2.5 µM, 16 h 37°C, purified peptide, mean of triplicate assays
Method: as §2

[10] = system: ST 530 (Methicillin resistant S. aureus); assay: Broth MIC, Gram positive; type: cell-based; conditions: broth microtitre, BSA pre-treated plates, 10^5 cfu ml^−1, 2-fold dilutions from 2.5 µM, 16 h 37°C, purified peptide, mean of triplicate assays
Method: as §2

L. monocytogenes LO28 = assay: Broth MIC, Gram positive; type: cell-based; conditions: broth microtitre, BSA pre-treated plates, 10^5 cfu ml^−1, 2-fold dilutions from 7.5 µM, 16 h 37°C, purified peptide, mean of triplicate assays
Method: as §2

L. monocytogenes 10403S = assay: Broth MIC, Gram positive; type: cell-based; conditions: broth microtitre, BSA pre-treated plates, 10^5 cfu ml^−1, 2-fold dilutions from 7.5 µM, 16 h 37°C, purified peptide, mean of triplicate assays
Method: as §2

C. sakazakii DPC 6440 [11] = assay: Agarose gel diffusion assay, peptide alone or with polymyxin B nonapeptide (PMBN); type: cell-based, Cronobacter sakazakii; conditions: for Total area of inhibitory zone, peptide alone: purified peptide 30 µM alone; for Total area of inhibitory zone, peptide + PMBN: purified peptide 30 µM in combination with polymyxin B nonapeptide (PMBN) 20 µg/ml
Method: as §3
Polymyxin B (PMB) is a cyclic lipodecapaptide produced by bacteria of the genus Paenibacillus that acts primarily on the Gram negative cell wall, leading to rapid permeability changes in the cytoplasmic membrane and ultimately cell death. […] To that end, C. sakazakii DPC 6440 cells were treated with purified nisin A, S29G and S29A peptides alone (30 µM) or in combination with PMBN at a concentration of 20 µg/ml and determined the antimicrobial activity by agarose gel diffusion assay (Fig. 5). […] When used in combination with PMBN, a substantial synergistic effect was clearly evident (Fig. 5) but in this instance no significant difference in efficacy was observed between nisin A or either of the derivatives S29A or S29G.

E. coli = assay: Kill curve analysis; type: cell-based; conditions: 33 mg/L purified peptide, 2×10^5 cfu ml^−1, 37°C for 1 hour
Method: as §1

C. sakazakii DPC 6440 [12] = assay: Broth MIC, Gram negative; type: cell-based, Cronobacter sakazakii; conditions: cells washed in 10 mM SPB pH 7.4, 2×10^5 CFU/mL, 2 h RT with peptide, then double strength LB, RT overnight, mean of triplicate assays
Method: as §4

S. typhimurium UK-1 = assay: Kill curve analysis; type: cell-based, Salmonella enterica serovar Typhimurium; conditions: 33 mg/L purified peptide, 2×10^5 cfu ml^−1, 37°C for 1 hour
Method: as §1

L. lactis MG1363 [13] = conditions: truncated nisin, ref [36]; cited from earlier work
Excerpt: The increased efficacy resulted from a single mutation located at serine 29, within the C-terminal of nisin. The importance of Serine 29 for activity has previously been noted when Chan et al report ...

Row | Substance | MIC (E. durans 5133) | MIC (S. mitis UCC5000) | Zone of inhibition, agarose gel diffusion (C. sakazakii DPC 6440 [2]) [mm] | Zone of inhibition, agarose gel diffusion [3] [mm] | Zone of inhibition, agarose gel diffusion (E. coli 0157-H7 [4]) [mm] | MIC [5] | MIC (E. coli 0157-H7 [6]) | MIC (B. cereus DPC 6088) | MIC (B. cereus DPC 6089) | Zone Diameter (mm) (Lactococcus lactis HP) | % difference (zone relative to wild type) (Lactococcus lactis HP) | MIC (L. lactis HP) | MIC [7] | MIC (S. aureus RF122) | MIC (L. lactis MG1363 [8]) | MIC [9] | MIC [10] | MIC (L. monocytogenes LO28) | MIC (L. monocytogenes 10403S) | Total area of inhibitory zone, peptide alone (C. sakazakii DPC 6440 [11]) [mm^2] | further results
1 | S29A: bioengineered nisin A derivative, serine 29 replaced by alanine (ITSISLCTPGCKTGALMGCNMKTATCHCAIHVSK; not fully specified (residues 2, 5, 33, bridges); cysteine pairing not given here; UniProt P13068 24-57, looked up, variant S29A) | 0.13 mg/L and 0.039 µM | 4.19 mg/L | 11.65±0.12 | 11.29±0.23 | 11.50±0.05 | 50.28 mg/L and 15 µM | 25.14 mg/L and 7.5 µM | 2 mg/L | 4.19 mg/L and 1.25 µM | 16.6±0.3 | 109 (0.004) % | 0.1 mg/L and 0.031 µM | 2 mg/L and 0.625 µM | 0.52 mg/L and 0.156 µM | 0.2 mg/L and 0.062 µM | 0.26 mg/L and 0.078 µM | 0.26 mg/L and 0.078 µM | 3.14 mg/L and 0.937 µM | 6.28 mg/L and 1.875 µM | 49.0±1.24 | Killing compared with nisin A (plate counts) (C. sakazakii DPC 6440 [1]): greater activity than wildtype nisin A; Zone as % wt (C. sakazakii DPC 6440 [2]; C. sakazakii DPC 6440, relative to nisin A): 119 % wt; Zone as % wt ([3]; Salmonella Typhimurium UK1, relative to nisin A): 114 % wt; Zone as % wt (E. coli 0157-H7 [4]; E. coli 0157-H7, relative to nisin A): 117 % wt; Total area of inhibitory zone, peptide + PMBN (C. sakazakii DPC 6440 [11]): 121.5±6.3 mm^2; Killing compared with nisin A (plate counts) (E. coli): greater activity than wildtype nisin A; MIC (C. sakazakii DPC 6440 [12]): 6.28 mg/L and 1.875 µM; Killing compared with nisin A (plate counts) (S. typhimurium UK-1): greater activity than wildtype nisin A
2 | nisin 1–28: truncated version of nisin, literature (ITSISLCTPGCKTGALMGCNMKTATCHC; ends and bridges not checked; cysteine pairing not given here; UniProt P13068 24-51, looked up, fragment) |  |  |  |  |  |  |  |  |  |  |  |  |  |  |  |  |  |  |  |  | fold reduced inhibitory activity relative to nisin (L. lactis MG1363 [13]): 100 fold
3 | nisin A (ITSISLCTPGCKTGALMGCNMKTATCHCSIHVSK; thioether (positions not given here); not fully specified (residues 2, 5, 33, bridges); also: lantibiotic, ring and dehydro modifications not given here; UniProt P13068 24-57, looked up) [wild type lantibiotic bacteriocin purified from L. lactis NZ9700; serine at position 29, reference compound] | 0.52 mg/L and 0.156 µM | 8.38 mg/L and 2.5 µM | 9.77±0.17 | 9.88±0.11 | 9.81±0.04 | > 100 mg/L and > 30 µM | 50.28 mg/L and 15 µM | 8.38 mg/L and 2.5 µM | 8.38 mg/L and 2.5 µM | 15.2±0.2 | 100% | 0.2 mg/L and 0.062 µM | 4.19 mg/L | 1.04 mg/L | 0.8 mg/L and 0.250 µM | 0.52 mg/L and 0.156 µM | 0.52 mg/L and 0.156 µM | 6.28 mg/L and 1.875 µM | 12.57 mg/L and 3.75 µM | 40.0±2.3 | MIC ([7]; listed as NisinA): 1.25 µM; MIC (S. aureus RF122; listed as NisinA): 0.312 µM; Total area of inhibitory zone, peptide + PMBN (C. sakazakii DPC 6440 [11]): 115.61±2.9 mm^2; MIC (C. sakazakii DPC 6440 [12]): 12.57 mg/L and 3.75 µM
